Test results as given in publication PMC3684770 (Free Radical Biology & Medicine, 2013).
Like-named read-outs stand apart in the source and are kept apart here.

Key:
Nrf2-ARE pathway [1] = assay: ARE reporter assay in CHO 4xARE-TK-GFP cells (Spectrum library hits)
Protocol: The Z′ score was calculated as follows Z′=1−(3SD^++3SD^−)/(Ave^+–Ave^−) where SD^+ = standard deviation of positive control wells; SD^− = standard deviation of negative control wells; Ave^+ = average fluorescence reading of positive control wells; Ave^− = average fluorescence reading of negative control wells.
Media was removed by hand and replaced (1 compound/well) with the Spectrum library diluted to 10 μM in 0.1% DMSO using a Q-bot liquid handling system (Genetix, New Milton, UK). […] The TK-GFP CHO ARE cell line was screened twice in a single point assay and the control TK-GFP CHO cell line was screened once to eliminate false positives.
The compounds were applied in triplicate to confluent cells in 96 well plates in serum free medium for 24 hours and the induction of GFP measured in a fluorescence plate reader.
In order to screen the Spectrum collection of 2000 molecules the reporter assay was optimised in […]. To assess the suitability of the assay for library screening, a Z’ score calculation was performed by treating alternate wells with vehicle (0.1% DMSO) and 10 µM Ebselen as a positive control (see calculation in Methods). […] The library was subsequently screened at a single point concentration of 10µM for every compound. Drug library dilutions and plating were performed with a Q-BOT liquid handling system and both the 4xARE-TK-GFP reporter cell line and TK-GFP control cell line were tested for their response to the compounds. Hits were identified as having data points more than three standard deviations above the background level, which was the average value of 24 wells treated with vehicle (0.1% DMSO) only. Hit compounds were checked to see if they generated a response in the control cell line, for example by non-specific activation of transcription or autofluorescence. […] The library screen was repeated once in the 4xARE –TK-CHO cell line and compounds classed as hits in both screens were taken forward for further assessment.

NSC34 cells [2] = test system: NSC34 cells
Protocol: (§3) Media were then replaced with serum-free, phenol-free media for 5 h.

[3] = test system: 1321N1 astrocyte cell line
Protocol: as §3

C6 astrocyte cell line [4] = test system: C6 astrocyte cell line
Protocol: as §3

C6 astrocyte cell line [5] = assay: C6 oxidative stress assay (serum withdrawal, DCF); conditions: Rattus norvegicus, Astrocyte; for Emax: 24 h, read-out: C6 oxidative stress assay Max reduction; for IC50: read-out: C6 oxidative stress assay IC50
Protocol: as §3

NSC34 cells [6] = assay: NSC34 oxidative stress assay (serum withdrawal, DCF); conditions: Mus musculus, NSC-34, 24 h, read-out: NSC34 oxidative stress assay Max reduction
Protocol: as §3

[7] = test system: 1321N1 astrocyte cell line; assay: 1321N1 oxidative stress assay (serum withdrawal, DCF); conditions: Homo sapiens; for Emax: 1321-N1, 24 h, read-out: 1321N1 oxidative stress assay Max reduction; for IC50: 1321-N1, read-out: 1321N1 oxidative stress assay IC50
Protocol: as §3

Nrf2-ARE pathway [8] = assay: ARE reporter assay in C6 astrocyte cell line (C6-ARE); format: cell-based, rat
Excerpt: (§1) Chinese hamster ovary (CHO), NSC34 mouse motor neuronal cells […] The ARE-TK-GFP and TK-GFP reporter constructs were a kind gift from William E. Fahl McArdle Laboratory for Cancer Research, University of Wisconsin. […] The NSC34 cell lines stably expressing G93A mutant hSOD1 have been described previously. […] Mouse embryonic fibroblasts were generated and maintained as described previously.

Nrf2-ARE pathway [9] = assay: ARE reporter assay in NSC34 cell line (NSC34-ARE); format: cell-based, mouse
Excerpt: as §1

[10] = test system: HO-1 and NQO1 gene expression; assay: Q-RTPCR of Nrf2-regulated genes in C6 cells; format: cell-based, rat; conditions: C6, 24-h treatment at EC50 and EC90
Protocol: (§2) Nrf2 Target gene expression was determined using Q-RTPCR as described previously using the following primers: Ho-1 forward primer, cac ttc gtc aga ggc ctg cta; Ho-1 reverse primer, gcg gtg tct ggg atg agc ta; Nqo1 forward primer, cgc ctg agc cca gat att gt; Nqo1 reverse primer, act gca atg gga act gaa ata tca; GAPDH forward, gaa acc tgc caa gta tga tga cat; GAPDH reverse, ggt cct cag tgt agc cca aga t.

[11] = test system: HO-1 and NQO1 gene expression; assay: Q-RTPCR of Nrf2-regulated genes in primary mouse astrocytes; format: cell-based; conditions: 24-h treatment at EC50 and EC90
Protocol: as §2

[12] = test system: NQO1 and HO-1 gene expression; assay: Q-RTPCR in astrocytes from SOD1G93A transgenic mice; format: cell-based, mouse; conditions: G93A SOD1 astrocytes, 24-h pretreatment at EC90 (andrographolide also EC50)
Protocol: as §2

primary mouse astrocytes = assay: Total glutathione assay in primary mouse astrocytes and conditioned media; format: cell-based; conditions: 24-h pretreatment
Protocol: Primary astrocytes were grown to confluency in 24-well plates and then treated with drug (or 0.05% DMSO vehicle) in phenol red-free DMEM containing 10% FBS and penicillin/streptomycin for 24 h. Conditioned medium was collected and astrocytes were then washed in ice-cold PBS before addition of 250 μl/well of sulphosalicylic acid (SSA, 5% (w/v)). Plates were frozen at −80 °C and thawed at 37 °C, twice, and then incubated at 4 °C for 15 min. The supernatant was removed and centrifuged at 13,000 g for 5 min. Conditioned medium samples were incubated at 80 °C for 15 min and then centrifuged at 13,000 g for 5 min. Samples were either used immediately or stored at −80 °C. Reaction mixture (150 μl/well; 100 mM potassium phosphate buffer, pH 7.0, 1 mM EDTA, 6 Units/ml glutathione reductase, 1.5 mg/ml 5,5′-dithiobis(2-nitrobenzoic acid)) was added to 10 μl of each sample or glutathione standard (0–50 μM reduced glutathione) in a 96-well plate and incubated at room temperature for 5 min before addition of 50 μl/well of NADPH solution (0.16 mg/ml). A412nm was measured every minute for 15 min and the total glutathione concentration (GSH + GSSG) was calculated from initial rates. Samples were tested in triplicate.

[13] = test system: primary mouse motor neurons; assay: Primary motor neuron/astrocyte coculture, menadione stress; format: cell-based; conditions: 24-h pretreatment, 6 h 10 µM menadione
Protocol: Mouse glial cultures were established based on published methods [[68,69]]. Primary spinal cord motor neurons (MNs) were cultured from E13.5 C57Bl/6 mouse embryos as described previously. Cocultures were allowed to establish for 2 weeks and neuroprotection assays performed. Cocultures were exposed to drug or vehicle for 24 h followed by a 6-h treatment with menadione (10 μM) to induce oxidative stress or with no stress to determine the effect of drug alone. Following stress treatment, coverslips were washed 3 times, fixed, and permeabilised, and MNs immunostained with SMI32 (Covance, UK). Total MNs were counted by fluorescence microscopy in a 1.5 cm^2 area per coverslip. A minimum of three repeats in triplicate were performed per condition. Both vehicle and drug treatments were counted with and without stress treatment, and results were analysed by two-way ANOVA using Bonferroni post tests.

[14] = Pharmacokinetic analysis in C57Bl/6 mice; format: in vivo, mouse; conditions: C57Bl/6, mouse, brain / plasma; iv 1 mg/kg; read-out: brain uptake (AUCinfinity brain / AUCinfinity plasma)
Protocol: Pharmacokinetic studies were performed by Pharmidex (London, UK). […] All concentrations were calculated with reference to the relevant standard curve. An extraction buffer (EB) solution of acetonitrile with 0.1% formic acid (Fisher Scientific, HPLC grade) and 500 ng/ml of propranolol as the internal standard (IS) was used for in all extraction protocols.

HO-1 gene expression = assay: Pharmacodynamic analysis: gene expression in spinal cord; format: in vivo, mouse; conditions: 5 mg/kg sc, 48 h postdosing
Excerpt: RNA was isolated using Qiagen RNeasy mini kit and Q-RTPCR performed on HO-1 and NQO-1 genes as described previously.

SOD1G93A transgenic mice = assay: SOD1G93A transgenic mouse model of ALS; format: in vivo
Protocol: Pharmacology experiments in SOD1^G93A transgenic mice were conducted according to the published guidelines for studies in this model. […] The litters were split to enable an even distribution of sex and parentage between the two comparison groups and the groups randomly assigned to treatment or control. […] Behavioural assessment was carried out blinded to treatment group. Rotarod training was performed over 3 days with 2 trials per day. Subsequently, the rotarod test was performed once per week in the afternoon. On each day, mice were tested twice with a rest period in between tests. The best score was taken for analysis. […] Latency to fall (s) was recorded in seconds for each mouse. […] They were placed on the catwalk apparatus in complete darkness and the recording of gait patterns was performed in a separate room. Multiple runs were recorded for each mouse and three selected for analysis. Processing of gait data was performed using the dedicated software, with the assignment of limbs performed manually and subsequent automated calculation of gait parameters.
Specimens were incubated overnight in 20% sucrose and then embedded in OCT embedding matrix. Thirty five-micrometer-thick longitudinal sections were collected. […] Images were captured on an Incell 2000 and innervated (yellow) or denervated (red) end-plates were counted with a minimum of 1000 NMJs counted per animal.

[15] = test system: primary fibroblasts from ALS patients; assay: Oxidative stress assay in ALS patient and control fibroblasts; format: cell-based, human; conditions: 4 µM
Protocol: Fibroblasts were obtained from human controls (n=3) and ALS patients with I113T SOD1 mutations (n=3) and sporadic ALS patients (n=2). […] The cells were incubated at 37 °C/5% CO2 overnight. The following day the media were removed and the cells were washed with 200 µl 1XP BS. Phenol red-free DMEM/F12 media (Sigma D6434) was added in the presence of 10% serum/2 mM Gln (++), 10% serum/0 mM Gln (+−), or 0% serum/0 mM Gln (−−). Cells were incubated at 37 °C/5% CO2 for 5 h.
Carboxy-H2DCFDA fluorescence was normalised to live cell number (total EthD1 signal after freeze/thaw – EthD1 signal after assay) to compare between the different cell lines. Data were analysed by one-way ANOVA with Bonferroni post tests using GraphPad Prism
DMEM/F12 (50 µl) media were added in the presence of 10% serum/0 mM Gln (+−) and the cells were incubated at 37 °C and 5% CO2 for 5 h.
The data were tested for normality and analysed by one-way ANOVA using GraphPad Prism.

[16] = test system: primary fibroblasts from ALS patients; assay: Menadione-induced cell death in fibroblasts (MTT); format: cell-based, human; conditions: sporadic and I113T SOD1 ALS fibroblasts, 4 µM
Protocol: The method used was essentially as described previously. Briefly methylthiazolyldiphenyl-tetrazolium bromide (MTT) was added to the cells and a blank well to a final concentration 0.5 mg/ml and incubated at 37 °C for 1–3 h depending on the cell line used. Cells and reaction product were solubilised in 20% SDS/50% DMF for 1 h with shaking at room temperature before reading the absorbance at 595 nm.

[17] = lowest dose at which a reduction in GFP fluorescence was observed

Compound | EC50 (Nrf2-ARE pathway [1]; Cricetulus griseus) [µM] | Toxic dose (Nrf2-ARE pathway [1]; [17]) | NSC34 oxidative stress assay Toxic dose (NSC34 cells [2]) | C6 oxidative stress assay Toxic dose (C6 astrocyte cell line [4]) | Emax (C6 astrocyte cell line [5]) [%] | IC50 (C6 astrocyte cell line [5]) [µM] | Emax (NSC34 cells [6]) [%] | Emax [7] [%] | IC50 [7] [µM] | 1321N1 oxidative stress assay Toxic dose [3] | also measured
O=C(CCBr)N1CCN(C(=O)CCBr)CC1 [Pipobroman, reference compound] | 10 | 100 µM | none | none | 71 | 11 | 30 | 19 | 3.16 |  | 1321N1 oxidative stress assay Toxic dose ([3]; human): 10 µM
CN1CCc2cccc3c2[C@@H]1Cc1ccc(O)c(O)c1-3 [S[+]-apomorphine] |  |  |  |  |  |  |  |  |  |  | potency of Nrf2-ARE activation compared with the R[–] enantiomer (Nrf2-ARE pathway [8]; C6 cells): equally potent; EC50 (Nrf2-ARE pathway [8]; Rattus norvegicus, C6 astrocyte cell line, concentration used in fibroblast assay, read-out: approximate EC50 concentration): ~4 µM; activation of Nrf2-ARE reporter (Nrf2-ARE pathway [9]): shows some activation; concentration showing activation of Nrf2-ARE reporter (Nrf2-ARE pathway [9]): ≥ 1 µM; HO-1 and NQO1 gene expression [10]: statistically significant changes in gene expression; HO-1 and NQO1 gene expression [11]: statistically significant changes in gene expression; transcripts for NQO1 and HO1 [12]: significant increase in transcripts; total glutathione levels (primary mouse astrocytes): enhance glutathione production; motor neuron numbers after menadione [13]: significant neuroprotective effects; Kp [14]: 2.28; HO-1 gene induction in whole spinal cord (HO-1 gene expression): 3.5 fold; time taken to reach a 20% decline in rotarod performance (median) (SOD1G93A transgenic mice; 5 mg/kg sc daily from Day 21, vehicle 6 weeks): 8 weeks; oxidised glutathione levels in spinal cord (SOD1G93A transgenic mice; 60 days of age, vehicle 7.1): 4.2 µM; gastrocnemius muscle innervation (SOD1G93A transgenic mice; 60 days of age, vehicle 28.1%): 39.5%; survival (SOD1G93A transgenic mice; failure of the righting response within 10 s): did not observe a significant improvement in survival; fore-limb and hind-limb stride length (gait analysis) (SOD1G93A transgenic mice; later stages of disease): significant delay in decline; motor neuron numbers at end-stage (SOD1G93A transgenic mice; mouse, in vivo): did not observe a significant improvement; reduction of oxidative stress (DCF) in control fibroblasts ([15]; control fibroblasts): nonsignificant; basal oxidative stress (DCF) in patient fibroblasts ([15]; sporadic and I113T SOD1 ALS fibroblasts, 24 h): significant reduction in basal oxidative stress; menadione-induced cell death (MTT) [16]: significantly attenuated cell death
C=C(C)C1(O)OC(=O)C=C1OC (centres unmarked) [Penicillic acid] | 14.9 |  | none | none | 68 | 4.62 | 9 | 45 |  | none | Toxic dose (Nrf2-ARE pathway [1]; Chinese hamster): 100 µM; maximal fold induction (Nrf2-ARE pathway [1]; Cricetulus griseus, CHO, 24 h, read-out: Fold GFP induction): 2.64
CC(=O)CCC(=O)O [Levulinic acid] | 12 | None | None | None | 62 | 7.69 | 15 | 58 | 3.31 | None | 
